According to patent US20260294915A1, “COMBINATION THERAPY COMPRISING A MAT2A INHIBITOR AND A TOPOISOMERASE INHIBITOR, A SPLICING INHIBITOR SULFONAMIDE, OR A KIF18 INHIBITOR” (IDEAYA BIOSCIENCES, INC., priority 2023, published 2026):

Assays:
Assay type in all cases: cell-based
NCI-H520 = experiment: 10-day proliferation (CTG), equimolar Compound A + Compound B (Example 1); details: Homo sapiens, NCI-H520, 240 h, 10 days, single agent or 1:1 combo; for IC30: read-out: gIC30; for IC40: read-out: gIC40; for IC50: read-out: gIC50; for IC60: read-out: gIC60; for IC70: read-out: gIC70; for IC80: read-out: gIC80; for IC90: read-out: gIC90; for IC100: read-out: gIC100
Description: (§1) A 10-day proliferation assay was performed in a panel of 5 MTAP-deficient and 2 wild type non-small cell lung and bladder cancer cell lines. Optimal cell seeding for all cell lines was determined by assessing the growth over a range of seeding densities in a 384-well format to identify conditions that permitted proliferation for 10 days. Cells were then plated at the optimal seeding density and treated with 20-point, two-fold dilution series of Compound A, sovilnesib (“Compound B”), or an equimolar combination of Compound A and Compound B. Concentrations tested for Compound A and Compound B alone or in combination ranged from 0.038 nM to 20,000 nM. A plate of cells was harvested at the time of compound addition to quantify the number of cells at the start of the combination (T0). For cell quantification, the harvested cells were lysed with Promega CellTiter-Glo (CTG) reagent according to the manufacturer's protocol and the chemiluminescent signal was detected on a Synergy Neo plate reader. CTG estimates cell number through detection of cellular ATP levels. Cells were incubated with the drug combinations at 37° C. with 5% CO2 for 10 days. Cells were then lysed with CTG and the chemiluminescent signal was measured.
(§2) CTG values obtained after the 10-day treatment were background subtracted and expressed as a percent of the T0 value. Data were plotted against compound concentration and fit with a four-parameter equation to generate dose response curves for each single agent and the equimolar combination. Growth ICx (gICx) values ranging from gIC30 to gIC100 were interpolated from the fitted curves. Synergistic growth inhibition was assessed by determination of Combination Index (CI) values at these various points across the titration using the mutually non-exclusive equation [Chou, 1983; Chou, 1981] shown below where A equals the gIC value of Compound A, B equals the gICx value of Compound B, and A+B or B+A equals the gICx value of the equimolar combination. A Combination Index value less than 1.0 was considered synergistic.
(§3) Synergy was measured for equimolar combinations of Compound A and Compound B utilizing the mutually non-exclusive Combination Index equation across gICx values ranging from gIC30-gIC100. Combination Index values are shown for: NCI-H520 (4A) and TCCSUP (41B).

TCCSUP = experiment: as above; details: Homo sapiens, TCC-SUP, 240 h, 10 days, single agent or 1:1 combo; for IC100: read-out: gIC100, heading: gIC100; for IC30: read-out: gIC30; for IC40: read-out: gIC40; for IC50: read-out: gIC50; for IC60: read-out: gIC60; for IC70: read-out: gIC70; for IC80: read-out: gIC80; for IC90: read-out: gIC90
Description: as §1, §2, §3

UMUC5 = experiment: 10-day proliferation (CTG), Compound B titration + 1000 nM Compound A, Bliss (Example 2); set-up: key to GDI: GDI, -100 to 100; 0 = cell number at T0
Description: (§4) A 10-day proliferation assay was performed in a panel of 5 MTAP-deficient and 2 wild type non-small cell lung and bladder cancer cell lines. Optimal cell seeding for all cell lines was determined by assessing the growth over a range of seeding densities in a 384-well format to identify conditions that permitted proliferation for 10 days. Cells were then plated at the optimal seeding density and treated with 20-point, two-fold dilution series of Compound B in combination with a 1000 nM fixed concentration of Compound A. Single agent titrations for Compound A and Compound B were included for comparison. Concentrations tested for Compound A and Compound B alone or in combination ranged from 0.038 nM to 20,000 nM. A plate of cells was harvested at the time of compound addition to quantify the number of cells at the start of the combination (T0). For cell quantification, the harvested cells were lysed with Promega CellTiter-Glo (CTG) reagent according to the manufacturer's protocol and the chemiluminescent signal was detected as described in Example 1 above. Cells were incubated with the drug combinations at 37° C. with 5% CO2 for 10 days. Cells were then lysed with CTG and the chemiluminescent signal was measured.
(§5) CTG values obtained after the 10-day treatment were background subtracted and expressed as a percent of the T0 value set at 100%. Data were plotted against compound concentration and fit with a four-parameter equation to generate single agent dose response curves. Percent inhibition was determined for each combination and single agent concentration compared to a DMSO control. In addition, the overall net growth or death of the cells was calculated and reported as a growth death index (GDI) value on a scale of −100 to 100 with the midpoint (0) being the number of cells at the beginning of the combination (T0).
(§6) Predicted inhibition was calculated using (Ea+Eb)−(Ea*Eb) where E equals the effect (inhibition) of each single agent (a and b). A difference between the observed inhibition percentage and the predicted inhibition percentage greater than 10% was considered synergistic. A Bliss score was only calculated for combinations eliciting >20% growth inhibition (GDI value <80). Since Bliss is calculated based on growth inhibition, scores within cytotoxic dose ranges may not accurately reflect synergistic cytotoxicity.
(§7) Synergy was measured across the Compound B titration with 1000 nM Compound A by Bliss Independence analysis. Bliss scores >10 are indicated by “*” and are considered synergistic. […] Synergy as reported using Bliss may be underrepresented within cytotoxic dose ranges. Growth death index values are shown for the combination titration and each single agent Compound A (Cmpd A) and Compound B (Cmpd B) on a scale of −100 to 100 with the midpoint (0) being the number of cells at the beginning of the combination (T0).

NCI-H838 = experiment: as above; set-up: key: GDI, -100 to 100; 0 = cell number at T0
Description: as §4, §5, §6, §7

RT112/84 = experiment: as above; set-up: key: GDI, -100 to 100; 0 = cell number at T0
Description: as §4, §5, §6, §7

[1] = Cmpd B 0.04 nM, combo: + 1000 nM Cmpd A
[2] = Cmpd B 0.1 nM, combo: + 1000 nM Cmpd A
[3] = Cmpd B 0.2 nM, combo: + 1000 nM Cmpd A
[4] = Cmpd B 0.3 nM, combo: + 1000 nM Cmpd A
[5] = Cmpd B 0.6 nM, combo: + 1000 nM Cmpd A
[6] = Cmpd B 1.2 nM, combo: + 1000 nM Cmpd A
[7] = Cmpd B 2.4 nM, combo: + 1000 nM Cmpd A
[8] = Cmpd B 4.9 nM, combo: + 1000 nM Cmpd A
[9] = Cmpd B 9.8 nM, combo: + 1000 nM Cmpd A
[10] = Cmpd B 19.5 nM, combo: + 1000 nM Cmpd A
[11] = Cmpd B 39.1 nM, combo: + 1000 nM Cmpd A
[12] = Cmpd B 78.1 nM, combo: + 1000 nM Cmpd A
[13] = Cmpd B 156.3 nM, combo: + 1000 nM Cmpd A
[14] = Cmpd B 312.5 nM, combo: + 1000 nM Cmpd A
[15] = Cmpd B 625 nM, combo: + 1000 nM Cmpd A
[16] = Cmpd B 1250 nM, combo: + 1000 nM Cmpd A
[17] = Cmpd B 2500 nM, combo: + 1000 nM Cmpd A
[18] = Cmpd B 5000 nM, combo: + 1000 nM Cmpd A
[19] = Cmpd B 10000 nM, combo: + 1000 nM Cmpd A
[20] = Cmpd B 20000 nM, combo: + 1000 nM Cmpd A

Nc1nc(=O)n(-c2ccccc2Cl)c2nc(C(F)(F)F)ccc12 [Compound A]
IC30 (NCI-H520): 20 µM | IC40 (NCI-H520): 20 µM | IC50 (NCI-H520): 20 µM | IC60 (NCI-H520): 20 µM | IC70 (NCI-H520): 20 µM | IC80 (NCI-H520): 20 µM | IC90 (NCI-H520): 20 µM | IC100 (NCI-H520): 20 µM | IC100 (TCCSUP): > 20 µM | IC30 (TCCSUP): 20 µM | IC40 (TCCSUP): 20 µM | IC50 (TCCSUP): 20 µM | IC60 (TCCSUP): 20 µM | IC70 (TCCSUP): 20 µM | IC80 (TCCSUP): 20 µM | IC90 (TCCSUP): 20 µM | GDI (UMUC5; single agent, 1000 nM Cmpd A): 59 | GDI (NCI-H838; single agent, 1000 nM Cmpd A): 52 | GDI (RT112/84; single agent, 1000 nM Cmpd A): 60

Cc1cc(NC(=O)c2ccc(NS(=O)(=O)CCO)cc2N2CCC3(CC2)CC3)nc(N2CCC(F)(F)CC2)n1 [Compound B, N-(2-(4,4-difluoropiperidin-1-yl)-6-methylpyrimidin-4-yl)-4-((2-hydroxyethyl)sulfonamido)-2-(6-azaspiro[2.5]octan-6-yl)benzamide]
IC30 (NCI-H520): 2.81 µM | IC40 (NCI-H520): 4.16 µM | IC50 (NCI-H520): 5.8 µM | IC60 (NCI-H520): 7.73 µM | IC70 (NCI-H520): 9.98 µM | IC80 (NCI-H520): 12.5 µM | IC90 (NCI-H520): 15.5 µM | IC100 (NCI-H520): 18.7 µM | IC100 (TCCSUP): > 20 µM | IC30 (TCCSUP): 0.091 µM | IC40 (TCCSUP): 0.107 µM | IC50 (TCCSUP): 0.126 µM | IC60 (TCCSUP): 0.15 µM | IC70 (TCCSUP): 0.183 µM | IC80 (TCCSUP): 0.24 µM | IC90 (TCCSUP): 0.405 µM | GDI (UMUC5; [1]): 97 | GDI (UMUC5; [2]): 100 | GDI (UMUC5; [3]): 100 | GDI (UMUC5; [4]): 100 | GDI (UMUC5; [5]): 100 | GDI (UMUC5; [6]): 96 | GDI (UMUC5; [7]): 100 | GDI (UMUC5; [8]): 99 | GDI (UMUC5; [9]): 100 | GDI (UMUC5; [10]): 100 | GDI (UMUC5; [11]): 100 | GDI (UMUC5; [12]): 100 | GDI (UMUC5; [13]): 75 | GDI (UMUC5; [14]): 26 | GDI (UMUC5; [15]): 17 | GDI (UMUC5; [16]): 16 | GDI (UMUC5; [17]): 15 | GDI (UMUC5; [18]): 5 | GDI (UMUC5; [19]): −87 | GDI (UMUC5; [20]): −91 | single agent dose sufficient to maximally inhibit cell growth (UMUC5; single agent): 5 µM | GDI (NCI-H838; [1]): 100 | GDI (NCI-H838; [2]): 100 | GDI (NCI-H838; [3]): 100 | GDI (NCI-H838; [4]): 100 | GDI (NCI-H838; [5]): 100 | GDI (NCI-H838; [6]): 100 | GDI (NCI-H838; [7]): 100 | GDI (NCI-H838; [8]): 100 | GDI (NCI-H838; [9]): 100 | GDI (NCI-H838; [10]): 100 | GDI (NCI-H838; [11]): 100 | GDI (NCI-H838; [12]): 100 | GDI (NCI-H838; [13]): 74 | GDI (NCI-H838; [14]): 65 | GDI (NCI-H838; [15]): 55 | GDI (NCI-H838; [16]): 48 | GDI (NCI-H838; [17]): 58 | GDI (NCI-H838; [18]): 87 | GDI (NCI-H838; [19]): 61 | GDI (NCI-H838; [20]): −1 | GDI (RT112/84; [1]): 100 | GDI (RT112/84; [2]): 100 | GDI (RT112/84; [3]): 100 | GDI (RT112/84; [4]): 100 | GDI (RT112/84; [5]): 100 | GDI (RT112/84; [6]): 100 | GDI (RT112/84; [7]): 100 | GDI (RT112/84; [8]): 100 | GDI (RT112/84; [9]): 100 | GDI (RT112/84; [10]): 100 | GDI (RT112/84; [11]): 100 | GDI (RT112/84; [12]): 100 | GDI (RT112/84; [13]): 63 | GDI (RT112/84; [14]): 30 | GDI (RT112/84; [15]): 24 | GDI (RT112/84; [16]): 31 | GDI (RT112/84; [17]): 31 | GDI (RT112/84; [18]): 33 | GDI (RT112/84; [19]): 2 | GDI (RT112/84; [20]): −86
